Laboratory results as given in patent publication US11311522B1 (Cavion, Inc., priority 2018, dated 2022).

Key:
in vivo [1] = details: rat, po
CYP2B6 = CYP2B6 mRNA induction in human hepatocytes; type: in vitro ADME
Source text: (§1) Glucuronide conjugates of the oxygenated metabolites are detected in human, monkey, and dog hepatocyte preparations. […] However, the abundance of CYP3A5, CYP2C19, and CYP2D6 in human liver microsomes is low (2%-5%) relative to the primary contributors, CYP3A4 (˜30%) and CYP2C9 (˜20%). […] Information on reproductive and developmental toxicology was obtained in a 28-day pivotal female fertility study in rats and in preliminary embryo-fetal development studies in rats and rabbits.

in vivo [2] = details: female, rat, po, 10 mg/kg/day
[3] = Pharmacokinetics in rhesus monkeys; type: in vivo, rhesus monkey; details: male, rhesus monkey, plasma, po, 2 mg/kg; read-out: AUC24
Experimental: The validity and reproducibility of the assays were determined, and the precision and accuracy for calibration standards and quality control samples were examined. […] The analytes were stable in plasma under the storage and assay conditions. […] Assay performances were satisfactory and met acceptance criteria for system performance suitability, quantitation range, calibration linearity, assay accuracy and precision, and assay recovery.

[4] = Phase 1 multiple-dose pharmacokinetics (PN002/Part II); details: human, plasma
[5] = Off-target panel of enzyme and receptor binding sites, ion channels, transporters; details: 10 μM, 87 targets
[6] = Brain penetration in male rats; type: in vivo; details: rat, brain and plasma, oral, 25 mg/kg, read-out: Brain-to-plasma ratio
CYP2C9 = target: T1, CYP2C9 (Homo sapiens, UniProt P11712); experiment: In vitro metabolism (liver microsomes, hepatocytes, recombinant CYPs, anti-CYP antibodies); type: in vitro ADME; details: recombinant CYP2C9
T1 construct: host or cells: pooled liver microsomes, hepatocytes and recombinant CYP enzymes
T1 sequence (P11712 whole entry): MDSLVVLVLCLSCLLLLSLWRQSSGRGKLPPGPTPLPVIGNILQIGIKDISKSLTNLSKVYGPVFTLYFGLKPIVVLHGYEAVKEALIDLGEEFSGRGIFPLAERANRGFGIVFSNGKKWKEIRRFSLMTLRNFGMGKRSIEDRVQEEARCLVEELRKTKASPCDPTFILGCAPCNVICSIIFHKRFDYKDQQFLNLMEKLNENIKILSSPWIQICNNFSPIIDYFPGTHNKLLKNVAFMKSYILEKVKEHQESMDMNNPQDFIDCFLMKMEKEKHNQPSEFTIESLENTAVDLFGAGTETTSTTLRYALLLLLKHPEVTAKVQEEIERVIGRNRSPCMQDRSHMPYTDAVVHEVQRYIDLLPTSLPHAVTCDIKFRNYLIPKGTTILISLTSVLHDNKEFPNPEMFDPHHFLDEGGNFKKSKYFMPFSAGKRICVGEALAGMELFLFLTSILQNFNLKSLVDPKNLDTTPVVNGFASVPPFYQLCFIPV
Source text: as §1

[7] = T-CALM: plasma concentrations by 5-in-1 LC/MS/MS; type: in vivo, human; details: for Plasma concentration, mean: trough
Experimental: Additionally, at Visit 4, a post-dose sample will be collected as close to 4 hours post-dose as possible, but within the window of 4-6 hours post-dose (i.e., a total of two PK samples are collected at Visit 4.)
Assay performances were satisfactory and met acceptance criteria for system performance suitability, quantitation range, calibration linearity, assay accuracy and precision, and assay recovery.

[8] = target: T2, breast cancer resistance protein (BCRP) (Homo sapiens, UniProt Q9UNQ0); experiment: BCRP transport; type: in vitro ADME; details: up to 30 μM
T2 sequence (Q9UNQ0 1-655): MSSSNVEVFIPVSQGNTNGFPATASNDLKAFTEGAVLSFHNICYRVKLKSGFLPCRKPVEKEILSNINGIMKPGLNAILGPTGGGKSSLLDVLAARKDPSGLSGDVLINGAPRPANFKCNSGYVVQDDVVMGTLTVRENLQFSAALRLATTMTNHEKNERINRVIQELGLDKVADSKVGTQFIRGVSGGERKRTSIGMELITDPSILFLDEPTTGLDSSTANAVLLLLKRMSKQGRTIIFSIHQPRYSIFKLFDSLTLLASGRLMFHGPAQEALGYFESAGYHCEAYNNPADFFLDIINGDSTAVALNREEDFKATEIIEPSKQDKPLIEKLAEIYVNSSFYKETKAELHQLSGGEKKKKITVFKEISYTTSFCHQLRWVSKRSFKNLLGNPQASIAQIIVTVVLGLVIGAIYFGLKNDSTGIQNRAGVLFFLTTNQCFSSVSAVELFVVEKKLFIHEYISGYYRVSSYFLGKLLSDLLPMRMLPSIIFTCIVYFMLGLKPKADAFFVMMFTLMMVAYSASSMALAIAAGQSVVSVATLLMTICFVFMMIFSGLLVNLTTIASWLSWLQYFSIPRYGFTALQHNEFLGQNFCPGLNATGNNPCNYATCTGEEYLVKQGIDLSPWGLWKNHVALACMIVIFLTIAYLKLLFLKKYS
Source text: as §1

[9] = Single-dose toxicokinetic study in dogs; type: in vivo; details: dog, plasma, po, 800 mg/kg
[10] = Phase 1 single-dose pharmacokinetics (PN001, PN002/Part I, PN003, PN005); type: in vivo, human; details: 8 mg CX-8998

Molecule `C[C@@H](NC(=O)Cc1ccc(C(C)(C)O)cc1)c1ccc(OCC(F)(F)F)cn1` [M02] has an AUC (in vivo [1]; female, 5 mg/kg) of 16.7 µM·h, an AUC (in vivo [1]; female, 15 mg/kg) of 54.8 µM·h and an AUC (in vivo [1]; female, 100 mg/kg) of 567 µM·h. It also gave an AUC (in vivo [1]; female, 300 mg/kg) of 511 µM·h, an AUC (in vivo [1]; male, 5 mg/kg) of 12 µM·h and an AUC (in vivo [1]; male, 15 mg/kg) of 26.1 µM·h. For the same molecule, the AUC (in vivo [1]; male, 100 mg/kg) was 186 µM·h, the AUC (in vivo [1]; male, 300 mg/kg) was 258 µM·h and the CYP2B6 induction (CYP2B6) was “mild to moderate inducers”. It also gave an AUC (in vivo [2]) of 31.7 µM·h, a Cmax (in vivo [2]) of 5400 nM and an AUC [3] of 36.6 µM·h. It also gave a half-life ([4]; 2 mg) of 15 h, an AUC ([4]; 2 mg, AUC24, M02, Day 7, CX-8998 2 mg once daily) of 0.93 µM·h and a Cmax ([4]; 2 mg, M02, Day 7, CX-8998 2 mg once daily) of 54 nM. It also gave a half-life ([4]; 4 mg) of 15.4 h, an AUC ([4]; 4 mg, AUC24, M02, Day 7, CX-8998 4 mg once daily) of 1.86 µM·h and a Cmax ([4]; 4 mg, M02, Day 7, CX-8998 4 mg once daily) of 106 nM. The half-life ([4]; 8 mg) was 12.2 h, the AUC ([4]; 8 mg, AUC24, M02, Day 7, CX-8998 8 mg once daily) was 3.54 µM·h and the Cmax ([4]; 8 mg, M02, Day 7, CX-8998 8 mg once daily) was 219 nM. The half-life ([4]; 12 mg) was 14.5 h, the AUC ([4]; 12 mg, AUC24, M02, Day 7, CX-8998 12 mg once daily) was 4.55 µM·h and the Cmax ([4]; 12 mg, M02, Day 7, CX-8998 12 mg once daily) was 287 nM. For the same molecule, the half-life ([4]; 18 mg) was 12.8 h, the AUC ([4]; 18 mg, AUC24, M02, Day 7, CX-8998 18 mg once daily) was 7.97 µM·h and the Cmax ([4]; 18 mg, M02, Day 7, CX-8998 18 mg once daily) was 481 nM. For the same molecule, the half-life ([4]; male, oral) was 12.2 to 15.4 h, the “Off-target effects (≥50% inhibition or stimulation)” value [5] was “No significant results” and the Kp at 2 h [6] was 0.32. For the same molecule, the “KM for CYP2C9 reactions (formation)” value (CYP2C9) was about 3 µM, the “Plasma concentration, mean” value ([7]; Visit 2 (Day 8), 4 mg BID) was 168 nM and the “Plasma concentration, mean” value ([7]; Visit 3 (Day 15), 8 mg BID) was 325 nM. The “Plasma concentration, mean” value ([7]; Visit 4 (Day 28), 10 mg BID) was 406 nM, the concentration at 4 h ([7]; human, plasma, oral, Visit 4 (Day 28), 10 mg BID, 4 hours post-dose) was 438 nM and the “Inhibition of BCRP-mediated transport” value [8] was “did not inhibit”. The Tmax ([9]; female) was 8 h, the Tmax ([9]; male) was 8 h and the “AUCinf, middle-aged and elderly female vs male subjects” value [10] was 11% lower. For the same molecule, the “Cmax, middle-aged and elderly female vs male subjects” value [10] was 2% higher.
